Results as given in paper PMC6470603, “Design and Synthesis of Matrine Derivatives as Novel Anti-Pulmonary Fibrotic Agents via Repression of the TGFβ/Smad Pathway” (Molecules, 2019).

Key:
[1] = system: TGF-β1 induced total collagen accumulation in MRC-5 cells; assay: Sircol collagen assay: inhibition of TGF-β1-induced total collagen accumulation; type: cell-based, human; conditions: for IC50: Homo sapiens, MRC5, 10 ng/mL TGF-β1, 48 h, Sircol collagen assay; for SI, selectivity index (SI = CC50/IC50): MRC-5 cells
Procedure: Higher SI values indicates better safety profile.
MRC-5 cells in 1 × 10^5 cells/mL density were seeded in TC treated 96-well plates and allowed to reach confluence for 48 h. The cells were then starved using MEM-NEAA containing 0.2% BSA for 24 h. After starvation, the medium was changed to MEM-NEAA supplemented with 0.2% BSA, 100 μM L-Proline, 100 μM Ascorbic acid, with or without 10 ng/mL TGF-β1 (Peprotech) in the presence of vehicle or different concentrations of compounds. After 48 h incubation, the MRC-5 cells were washed with phosphate buffered saline (PBS) and fixed in −20 °C precooled methanol for 10 min. The cells were than washed with PBS before incubation in 0.1% PSR staining solution (0.1% Sirus red in saturated water solution of picric acid) for 1 h. The staining solution was then removed and the cells were washed with 0.1% acetic acid for three times. 200 μL of 0.1 mol/L sodium hydroxide solution were added to each well and the plates were placed on a rocking platform for 1 h. The optical density (OD) values at 550 nm were determined with an Infinite 2000 spectrophotometer.

[2] = Cytotoxicity assay (CCK-8); conditions: human, MRC-5 cells (human fetal lung fibroblasts)
Procedure: Cytotoxicity of all compounds were also determined against MRC-5 cells, so as to calculate selectivity index (SI, CC50/IC50).
MRC-5 cells in passage between 21 to 26 were used for experiments.
MRC-5 cells were incubated with different concentrations of compounds for 48 h, and then 10 μL of CCK-8 solution were added to each well. The cells were incubated at 37 °C for another 3 h before determining the OD values at 492 nm. DMSO at 0.1% v/v final concentration was used to solubilize the test compounds, except for compound 3b, 3c, and 3e, where 1% v/v DMSO was used to ensure complete solubilization.

[3] = system: MRC-5 fibroblasts; assay: Scratch (wound healing) assay, TGF-β1-induced fibroblast migration; type: cell-based, human; conditions: 1000 μM, 10 ng/mL TGF-β1, 24 h (TGF-β1 alone 85.0%)
Procedure: Fibroblast migration is the key event in pulmonary fibrogenesis. […] Inhibition of lung fibroblasts migration is a promising potential therapeutic target for IPF. We performed wound healing assay to investigate the inhibitory effect of 3f and matrine against fibroblast migration (Figure 7).
MRC-5 cells were seeded on 6-well plates and allowed to reach confluence for 48 h. The cell monolayer was gently scratched with a 1 mL pipette tip across the center of the well. After scratching, the cells were washed twice with medium to remove detached cells. The cells were then treated with or without 10 ng/mL TGF-β1 in the presence of vehicle or 10 μM 3f for 24 h. The gap area in wound region was quantitatively evaluated using ImageJ [30] and MRI wound healing tool plugin [31].

SMILES	IC50 [1] [µM]	SI, selectivity index (SI = CC50/IC50) [1]	CC50 at 48 h [2] [µM]	closure of wound area over 24 h period [3] [%]
CNC1CC(=O)N2CC3CCCN4CCCC(C34)C2C1 (stereo not shown) [2a, 13-methylamino-matrine]	65.3 ± 4.2	9.3	609 ± 29.8	–
CN(C)C1CC(=O)N2CC3CCCN4CCCC(C34)C2C1 (stereo not shown) [2b, 13-dimethylamino-matrine]	92.1 ± 1.9	6.8	624 ± 13.2	–
O=C1CC(N2CCCC2)C[C@@H]2[C@H]3CCCN4CCC[C@@H](CN12)[C@@H]34 (stereo partly shown) [2c, 13-(pyrrolidine-1-yl)-matrine]	256 ± 22.1	2.6	676 ± 49.1	–
O=C1CC(N2CCOCC2)C[C@@H]2[C@H]3CCCN4CCC[C@@H](CN12)[C@@H]34 (stereo partly shown) [2d, 13-morpholinocyclohexane-matrine]	138 ± 9.8	3.7	507 ± 25.3	–
O=C1CC(n2ccc3ccccc32)C[C@@H]2[C@H]3CCCN4CCC[C@@H](CN12)[C@@H]34 (stereo partly shown) [3a, 13-(1H-indol-1-yl)-matrine]	28.3 ± 3.9	3.8	107 ± 5.9	–
Cc1cn(C2CC(=O)N3C[C@@H]4CCCN5CCC[C@@H]([C@H]45)[C@H]3C2)c2ccccc12 (stereo partly shown) [3b, 13-(3-methyl-1H-indol-1-yl)-matrine]	39 ± 0.6	2.4	95.1 ± 6.5	–
COc1cccc2c1ccn2C1CC(=O)N2C[C@@H]3CCCN4CCC[C@@H]([C@H]34)[C@H]2C1 (stereo partly shown) [3c, 13-(4-methoxy-1H-indol-1-yl)-matrine]	44.7 ± 3.6	1.3	56.7 ± 3.9	–
O=C1CC(n2ccc3c([N+](=O)[O-])cccc32)C[C@@H]2[C@H]3CCCN4CCC[C@@H](CN12)[C@@H]34 (stereo partly shown) [3d, 13-(4-nitro-1H-indol-1-yl)-matrine]	4.3 ± 0.4	7.6	32.8 ± 2.7	–
COc1ccc2c(ccn2C2CC(=O)N3C[C@@H]4CCCN5CCC[C@@H]([C@H]45)[C@H]3C2)c1 (stereo partly shown) [3e, 13-(5-methoxy-1H-indol-1-yl)-matrine]	68.1 ± 5.5	1.9	128 ± 1.4	–
O=C1CC(n2ccc3cc(Br)ccc32)C[C@@H]2[C@H]3CCCN4CCC[C@@H](CN12)[C@@H]34 (stereo partly shown) [3g, 13-(5-bromo-1H-indol-1-yl)-matrine]	6.5 ± 1.2	2.8	18.2 ± 0.6	–
N#Cc1ccc2c(ccn2C2CC(=O)N3C[C@@H]4CCCN5CCC[C@@H]([C@H]45)[C@H]3C2)c1 (stereo partly shown) [3h, 13-(5-cyano-1H-indol-1-yl)-matrine]	72.1 ± 4	2.1	154 ± 11	–
O=C1CC(n2ccc3cc([N+](=O)[O-])ccc32)C[C@@H]2[C@H]3CCCN4CCC[C@@H](CN12)[C@@H]34 (stereo partly shown) [3i, 13-(5-nitro-1H-indol-1-yl)-matrine]	14.5 ± 1	4.5	65.4 ± 3.1	–
O=C1CC(n2ccc3cnccc32)CC2C3CCCN4CCCC(CN12)C34 (stereo not shown) [3j, 13-(1H-pyrrolo[3,2-c]pyridin-1-yl)-matrine]	16.7 ± 3.5	6.8	114 ± 5.9	–
O=C1CC(n2ccc3ccc(F)cc32)C[C@@H]2[C@H]3CCCN4CCC[C@@H](CN12)[C@@H]34 (stereo partly shown) [3k, 13-(6-fluoro-1H-indol-1-yl)-matrine]	23.1 ± 5.3	3.4	78.1 ± 3.4	–
O=C1CC(n2ccc3ccc(Cl)cc32)C[C@@H]2[C@H]3CCCN4CCC[C@@H](CN12)[C@@H]34 (stereo partly shown) [3l, 13-(6-chloro-1H-indol-1-yl)-matrine]	27 ± 1.4	1.7	45.8 ± 1.1	–
O=C1CC(n2ccc3ccc([N+](=O)[O-])cc32)C[C@@H]2[C@H]3CCCN4CCC[C@@H](CN12)[C@@H]34 (stereo partly shown) [3m, 13-(6-nitro-1H-indol-1-yl)-matrine]	19.3 ± 2.2	2.8	53.3 ± 1.9	–
O=C1CC(n2ccc3ccncc32)C[C@@H]2[C@H]3CCCN4CCC[C@@H](CN12)[C@@H]34 (stereo partly shown) [3n, 13-(1H-pyrrolo[2,3-c]pyridin-1-yl)-matrine]	69.5 ± 8.2	1.2	84.2 ± 2.2	–
O=C1CCC[C@@H]2[C@H]3CCCN4CCC[C@@H](CN12)[C@@H]34 [Matrine]	878 ± 68	2.8	2470 ± 103	56.6
Cc1ccc(=O)n(-c2ccccc2)c1 [Pirfenidone, reference compound]	1320 ± 98	3.1	4160 ± 239	–
